Tested on: ADtg mice
Test: Barnes maze behavioral test in AD mice
Assay type: in vivo, mouse
Protocol: ADtg mice (10 months old) received subcutaneous injections of GA [also known as Cop-1 and Copaxone®; 100 μg in phosphate-buffered saline (PBS)] or PBS alone (control group) twice a week for 1 week and then once a week for 8 weeks. For evaluation of innate immune infiltration to the brain by flow cytometry, 10-month-old ADtg mice received subcutaneous injections of GA (100 mg in PBS) or PBS alone twice a week for 1 week and then once a week for 3 weeks. At the end of the study, all mice were anaesthetized and then perfused with ice-cold PBS with 0.5 mM EDTA, after which their organs were collected and analyzed or fixed in 2.5% paraformaldehyde (Sigma-Aldrich), and cryoprotected with 30% sucrose for further histological analysis.
CD115^+ monocytes from mice donors were isolated as previously reported (Koronyo et al., Brain: a journal of neurology 2015,138:2399-2422). […]
The Barnes maze is a spatial-learning task that allows subjects to use spatial cues to locate a means of escape from a mildly aversive environment (open space with light projection); mice are required to use spatial cues to find an escape location. The mice are assessed for their ability to learn the location of an escape box over the course of 9 days in the Barnes maze apparatus. […]

glatiramer acetate [GA]
cognition: retained cognition

— patent US11779600B2, “Methods of treating or preventing alzheimer's disease and associated conditions” (CEDARS-SINAI MEDICAL CENTER, priority 2016, dated 2023)
